The target in this assay is T1, androgen receptor (AR) (Homo sapiens, UniProt P10275, T878A).
T1 construct: endogenous in cells; host or cells: LNCaP
T1 sequence (P10275 1-920 T878A): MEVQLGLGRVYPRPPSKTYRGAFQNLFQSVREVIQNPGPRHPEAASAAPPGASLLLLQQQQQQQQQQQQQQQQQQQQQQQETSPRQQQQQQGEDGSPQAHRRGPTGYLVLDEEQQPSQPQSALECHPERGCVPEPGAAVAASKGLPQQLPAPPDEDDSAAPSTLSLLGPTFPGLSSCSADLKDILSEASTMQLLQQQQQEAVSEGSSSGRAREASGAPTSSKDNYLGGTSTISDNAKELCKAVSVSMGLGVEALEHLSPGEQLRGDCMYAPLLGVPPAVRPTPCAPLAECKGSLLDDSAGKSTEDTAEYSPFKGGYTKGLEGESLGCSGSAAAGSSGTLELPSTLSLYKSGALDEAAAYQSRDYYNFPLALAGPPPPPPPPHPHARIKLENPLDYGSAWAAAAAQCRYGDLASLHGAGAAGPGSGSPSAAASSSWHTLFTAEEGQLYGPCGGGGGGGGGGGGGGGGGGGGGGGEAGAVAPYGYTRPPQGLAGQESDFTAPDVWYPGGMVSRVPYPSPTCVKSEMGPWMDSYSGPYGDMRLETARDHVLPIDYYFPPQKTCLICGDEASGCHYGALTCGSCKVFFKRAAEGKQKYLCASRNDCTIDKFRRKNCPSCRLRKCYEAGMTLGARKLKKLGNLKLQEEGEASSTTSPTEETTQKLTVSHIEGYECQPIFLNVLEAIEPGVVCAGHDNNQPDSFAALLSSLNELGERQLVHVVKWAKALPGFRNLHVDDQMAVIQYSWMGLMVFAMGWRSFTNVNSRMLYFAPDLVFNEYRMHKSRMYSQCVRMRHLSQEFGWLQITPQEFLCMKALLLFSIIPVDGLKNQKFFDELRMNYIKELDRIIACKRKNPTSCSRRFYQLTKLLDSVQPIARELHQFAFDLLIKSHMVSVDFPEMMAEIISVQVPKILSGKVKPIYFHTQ
Put plainly: Androgen-induced PSA-luciferase assay, Luciferase Assay A (LNCaP transiently transfected with PSA (6.1 kb)-luciferase reporter). Type of assay: cell-based. Conditions: LNCaP cells, 1 h pretreatment, R1881 (1 nM) 24 h, read-out: PSA-Luc IC50 Range. The protocol: The PSA (6.1 kb)-luciferase reporter contains functional AREs (androgen response elements) to which AR binds in response to androgen to induce luciferase activity. LNCaP cells were transiently transfected with the PSA (6.1 kb)-luciferase reporter for 24 h, and then pretreated with vehicle (DMSO) or indicated concentration of representative compounds for one hour prior to the addition of synthetic androgen, R1881 (1 nM). After 24 h of incubation with R1881, the cells were harvested, and relative luciferase activities were determined (FIG. 1). To determine the IC50, treatments were normalized to vehicle control activity induced by R1881 (Table 2).
Luciferase Assay A: Cells were lysed using Passive Lysis Buffer (Promega) and then collected into V-bottom 96-well tissue culture plates. Lysates were centrifuged at 4° C. for 5 minutes at 3000 rpm. To measure luminescence of LNCaP cell lysates the Firefly Luciferase Assay System (Promega) was employed, according to manufacturer's protocol. Relative luminescence units (RLU) in cell lysates were detected for 10 seconds using Promega GloMax-Multi Detection Luminometer (Promega). Values were normalized to protein content. GraphPad Prism graphing software was used to calculate IC50 values. Luciferase Assay A was run for all compounds in Table 2 unless otherwise noted below.
Statistical analyses were performed using GraphPad Prism (Version 6.01 for Windows; La Jolla, CA, USA). Comparisons between treatment and control groups were compared using Two-Way ANOVA with post-hoc Dunnett's and Tukey's tests. Differences were considered statistically significant at P values less than 0.05.

A word on the IC50: it is the midpoint of a concentration-inhibition curve.

Structures are written as SMILES.

Turning to `CC(C)(c1ccc(OC[C@H]2CC[C@H](NS(C)(=O)=O)CC2)cc1)c1cc(Cl)c(OCCCl)c(C#N)c1` [Compound A63], the half-maximal inhibitory concentration (IC50) lay within 500 to 2000 nM. As to `CC(C)(c1ccc(OC[C@H]2C[C@H](CNS(C)(=O)=O)C2)cc1)c1cc(Cl)c(OCCCl)c(C#N)c1` [Compound A64], the IC50 fell in the range of 500 to 2000 nM. The value for `CS(=O)(=O)Nc1nccc2cc(-c3ccc(Oc4cc(Cl)c(OCCCl)c(C#N)c4)cc3)ccc12` [Compound A65] was over 2000 nM. Then `CS(=O)(=O)Nc1nccc2nc(-c3ccc(Oc4cc(Cl)c(OCCCl)c(C#N)c4)cc3)ccc12` [Compound A66], with over 2000 nM; and `COc1c(Cl)cc(N(CC(F)(F)F)c2ccc(-c3ccc4nc(NS(C)(=O)=O)cnc4c3)cc2)cc1C#N` [Compound A67], with 500 to 2000 nM.

On to `CS(=O)(=O)NC1CN(c2ncc(-c3ccc(N(CC(F)(F)F)c4cc(Cl)c(OCCCl)c(C#N)c4)cc3)cn2)C1` [Compound A68], for which the 50% inhibitory concentration (IC50) was under 500 nM. Then `CC(C)(c1ccc(-c2ccc(N3CC(NS(C)(=O)=O)C3)nn2)cc1)c1cc(Cl)c(OCCCl)c(C#N)c1` [Compound A69], with 500 to 2000 nM.

Turning to `CS(=O)(=O)NC1CN(c2ncc(-c3ccc(Oc4cc(Cl)c(OCCCl)c(C#N)c4)cc3)cn2)C1` [Compound A70], the IC50 was over 2000 nM. Regarding `CC(C)(c1ccc(OCC2CC3(C2)CN(S(C)(=O)=O)C3)cc1)c1cc(Cl)c(OCCCl)c(C#N)c1` [Compound A71], the IC50 was 500 to 2000 nM. The value for `CC(C)(c1ccc(OC[C@H]2C[C@@H](CNS(C)(=O)=O)C2)cc1)c1cc(Cl)c(OCCCl)c(C#N)c1` [Compound A74] was 500 to 2000 nM; that for `CC(C)(c1ccc(-c2cnc(NC3CN(S(C)(=O)=O)C3)nc2)cc1)c1cc(Cl)c(OCCCl)c(C#N)c1` [Compound A76] was 500 to 2000 nM. Then `CC(C)(c1ccc(-c2cn([C@H]3C[C@H](NS(C)(=O)=O)C3)nn2)cc1)c1cc(Cl)c(OCCCl)c(C#N)c1` [Compound A77], with over 2000 nM; and `CS(=O)(=O)N[C@H]1C[C@H](n2cc(-c3ccc(Oc4cc(Cl)c(OCCCl)c(C#N)c4)cc3)cn2)C1` [Compound A79], with over 2000 nM. Consider `CC(C)(c1ccc(Oc2ccnc(CNS(C)(=O)=O)n2)cc1)c1cc(Cl)c(OCCCl)c(C#N)c1` [Compound A85], for which the concentration for half-maximal inhibition (IC50) fell in the range of 500 to 2000 nM. The value for `CC(C)(c1ccc(Oc2cnc(CNS(C)(=O)=O)nc2)cc1)c1cc(Cl)c(OCCCl)c(C#N)c1` [Compound A86] was 500 to 2000 nM; that for `CC(C)(c1ccc(Oc2ccnc(N3CC(NS(C)(=O)=O)C3)n2)cc1)c1cc(Cl)c(OCCCl)c(C#N)c1` [Compound A87] was 500 to 2000 nM. For the compound `CS(=O)(=O)Nc1cnc2cc(N3CCC(Oc4cc(Cl)c(OCCCl)c(C#N)c4)CC3)ccc2n1` [Compound A88], the IC50 was over 2000 nM.

On to `CS(=O)(=O)Nc1cnc2cc(C3CCN(Cc4cc(Cl)c(OCCCl)c(C#N)c4)CC3)ccc2n1` [Compound A93], for which the IC50 was over 2000 nM. For the compound `CC(C)(c1ccc(-c2cnc(N3CC(CNS(C)(=O)=O)C3)nc2)cc1)c1cc(Cl)c(OCCCl)c(C#N)c1` [Compound A95], the IC50 was 500 to 2000 nM. The value for `CS(=O)(=O)NCC1CN(c2ncc(-c3ccc(Oc4cc(Cl)c(OCCCl)c(C#N)c4)cc3)cn2)C1` [Compound A96] was under 500 nM.

Take `CS(=O)(=O)NC12CC(n3cc(-c4ccc(Oc5cc(Cl)c(OCCCl)c(C#N)c5)cc4)cn3)(C1)C2` [Compound A99]: the IC50 was in the range of 500 to 2000 nM. Then `CC(C)(c1ccc(OCc2ccnc(NS(=O)(=O)c3cccs3)n2)cc1)c1cc(Cl)c(OCCCl)c(C#N)c1` [Compound A100], with 500 to 2000 nM. The value for `CC(C)(c1ccc(OCc2ccnc(NS(=O)(=O)c3ccsc3)n2)cc1)c1cc(Cl)c(OCCCl)c(C#N)c1` [Compound A101] was 500 to 2000 nM; that for `C=COc1c(Cl)cc(C(C)(C)c2ccc(COc3ccnc(NS(C)(=O)=O)n3)cc2)cc1C#N` [Compound A102] was over 2000 nM. Then `CC(C)(c1ccc(OCc2ccnc(NS(=O)(=O)c3ccoc3)n2)cc1)c1cc(Cl)c(OCCCl)c(C#N)c1` [Compound A103], with 500 to 2000 nM. Take `CC(C)(c1ccc(OCc2ccnc(-n3cc(S(N)(=O)=O)cn3)n2)cc1)c1cc(Cl)c(OCCCl)c(C#N)c1` [Compound A104]: the IC50 was over 2000 nM.

Take `Cn1ccc(S(=O)(=O)Nc2nccc(COc3ccc(C(C)(C)c4cc(Cl)c(OCCCl)c(C#N)c4)cc3)n2)n1` [Compound A105]: the IC50 was 500 to 2000 nM. Turning to `CC(C)(c1ccc(OCc2ccnc(-n3cnc(S(N)(=O)=O)c3)n2)cc1)c1cc(Cl)c(OCCCl)c(C#N)c1` [Compound A106], the IC50 lay within 500 to 2000 nM. Then `Cn1cnc(S(=O)(=O)Nc2nccc(COc3ccc(C(C)(C)c4cc(Cl)c(OCCCl)c(C#N)c4)cc3)n2)c1` [Compound A107], with over 2000 nM; and `CC(C)(c1ccc(OCc2ccnc(-n3cnc(S(N)(=O)=O)n3)n2)cc1)c1cc(Cl)c(OCCCl)c(C#N)c1` [Compound A108], with 500 to 2000 nM. The value for `CC(C)(c1ccc(OCc2ccnc(NS(=O)(=O)c3cccnc3)n2)cc1)c1cc(Cl)c(OCCCl)c(C#N)c1` [Compound A109] was over 2000 nM. Then `CC(C)(c1ccc(OCc2ccnc(NS(=O)(=O)c3ccccn3)n2)cc1)c1cc(Cl)c(OCCCl)c(C#N)c1` [Compound A110], with 500 to 2000 nM; and `CC(C)(c1cc(Cl)c(OCCCl)c(C#N)c1)c1ccc(OCc2ccnc(NS(C)(=O)=O)n2)c(CN)c1` [Compound A111], with over 2000 nM; and `CC(C)(C)OC(=O)N1CCN(Cc2cc(C(C)(C)c3cc(Cl)c(OCCCl)c(C#N)c3)ccc2OCc2ccnc(NS(C)(=O)=O)n2)CC1` [Compound A112], with 500 to 2000 nM. Turning to `CC(C)(c1cc(Cl)c(OCCCl)c(C#N)c1)c1ccc(OCc2ccnc(NS(C)(=O)=O)n2)c(CN2CCNCC2)c1` [Compound A113], the IC50 was over 2000 nM. The value for `CC(C)(c1ccc(OCc2cc(C3CCNCC3)nc(NS(C)(=O)=O)n2)cc1)c1cc(Cl)c(OCCCl)c(C#N)c1` [Compound A114] was over 2000 nM. `CC(C)(C)OC(=O)N1CCC(c2cc(COc3ccc(C(C)(C)c4cc(Cl)c(OCCCl)c(C#N)c4)cc3)nc(NS(C)(=O)=O)n2)CC1` [Compound A115]: the IC50 lay in the range of 500 to 2000 nM. Then `CC(C)(c1ccc(OCc2cc(N3CCNCC3)nc(NS(C)(=O)=O)n2)cc1)c1cc(Cl)c(OCCCl)c(C#N)c1` [Compound A116], with over 2000 nM; and `CC(C)(C)OC(=O)N1CCN(c2cc(COc3ccc(C(C)(C)c4cc(Cl)c(OCCCl)c(C#N)c4)cc3)nc(NS(C)(=O)=O)n2)CC1` [Compound A117], with over 2000 nM.

Consider `CC(C)(c1ccc(OCc2cnc(NS(C)(=O)=O)nc2N)cc1)c1cc(Cl)c(OCCCl)c(C#N)c1` [Compound A118, N-(4-amino-5-((4-(2-(3-chloro-4-(2-chloroethoxy)-5-cyanophenyl)propan-2-yl)phenoxy)methyl)pyrimidin-2-yl)methanesulfonamide], for which the IC50 is under 500 nM. Then `CC(C)(c1cc(Cl)c(OCCCl)c(C#N)c1)c1ccc(OCc2ccnc(NS(C)(=O)=O)n2)c(CO)c1` [Compound A119], with over 2000 nM; and `CS(=O)(=O)N1CCc2cc(-c3ccc(Oc4cc(Cl)c(OCCCl)c(C#N)c4)cc3)ccc2C1` [Compound A120], with over 2000 nM; and `CC(C)(c1ccc(OCc2ccnc(NS(C)(=O)=O)n2)cc1)c1cc(Cl)c(OC2CC(F)(F)C2)c(C#N)c1` [Compound A121], with 500 to 2000 nM.

Values taken from US20230373934A1, “ANDROGEN RECEPTOR MODULATORS AND METHODS FOR THEIR USE” (ESSA Pharma, Inc., priority 2022, published 2023).
